How the values were obtained:
[1] = tested on: transitory focal cerebral ischaemia; assay: Anti-ischaemic activity: transitory focal cerebral ischaemia by intraluminal occlusion; assay type: in vivo; conditions: adult male Wistar rat; 1 mg/kg intravenously 3 minutes before occlusion; occlusion 1 hour, reperfusion 23 hours
Method: The model used is a model of transitory focal cerebral ischaemia produced by intraluminal occlusion which mimics an embolic cerebral vascular accident in humans. The location of the infarction is cortical and subcortical (R. Bordet et al., J Cereb Blood Flow Metab. 20, 2000, 1190-1196 and 1999, 19, 1309-1345).
The model consists of a unilateral occlusion of the […] for 1 hour followed by reperfusion for 23 hours in an adult male Wistar rat. The aim of this experiment is to study the anti-ischaemic effect of the compounds of the invention.
The animals are anaesthetised for surgery with 300 mg/kg of chloral hydrate. For the duration of the surgery, their temperature is monitored and maintained at 37° C. using a temperature-controlled heating blanket.
The principal procedure is to stop the circulation of blood to the right middle cerebral artery (MCA) by intraluminal occlusion of the ostium. After 60 minutes, the occlusion is removed and the animals are replaced in their cage. After 24 hours the animals are sacrificed under anaesthetic. […]
The uncorrected infarcted zones and the total hemispheric zones are calculated separately for each section using an image analysis program. The corrected total volume of infarction is calculated in order to compensate for the effect of cerebral cedema. […]

[2] = tested on: mouse model of neurodegeneration affecting both the cortical neurones and the subjacent white matter; assay: Neuroprotection in the cortex and white matter: excitotoxic lesions by intracerebral ibotenate or S-bromo-willardiine; assay type: in vivo; conditions: for Cortical lesions: lesion, μm / White matter lesions: lesion, μm: 10 mg/kg i.p. immediately after excitotoxic assault at P5, sacrifice at P10, averages; for size of the lesions in the white matter and in the cortex (neuroprotective effect): newborn Swiss mouse, test compound intraperitoneally after excitotoxic assault
Method: The model used is a mouse model of neurodegeneration affecting both the cortical neurones and the subjacent white matter (S. L. Tahraoui et al., Brain Pathol., 2001, 11, 56-71). This model is based on an intracerebral injection of S-bromo-willardiine, a glutamatergic agonist that acts on AMPA-kainate receptors, or of ibotenate, an agonist of NMDA-type receptors, in the newborn mouse.
All the injections are carried out in the morning between 10.00 and 13.00 hours. The animals are anaesthetised in advance and kept under a heating lamp during the handling period. Each experimental group comprises from 5 to 12 Swiss mice of both sexes, from at least 2 different litters. On the 5th day of life (P5), 10 μg of ibotenate or 15 μg of S-bromo-willardiine are injected intracerebrally using a 25G gauge needle mounted on a 50 μl syringe, fixed to a calibrated device that delivers a bolus of 1 μl at each depression. The needle is inserted 2 mm below the cutaneous level, in the fronto-parietal region of the right hemisphere (2 mm in front of the lambdoid suture and 2 mm outside the median line). Two boluses of 1 μl (1 μl into the periventricular white matter and 1 μl into the cortex) are administered. An interval of 30 seconds, during which the needle remains in position, separates each bolus in order to allow diffusion of the product. Immediately after this excitotoxic assault, the test compound (3, 10 or 30 mg/kg) or the carrier is administered intraperitoneally (injected volume=5 μl). The animals are sacrificed by decapitation 5 days later (P10) and their brains are immediately removed and fixed in formol before being enclosed in paraffin. Series of 15 μm coronal sections are prepared for all the brains and stained with cresyl violet, which makes it possible to determine in a precise and reproducible manner the anterio-posterior axis of the histological lesions in both the cortex and the white matter. The sizes of the histological lesions are determined by two independent observers having no knowledge of the experimental groups. The results are expressed in the form of averages.

[3] = tested on: primary cultures of cardiomyocytes; assay: Anti-apoptotic effect in primary cultures of cardiomyocytes (H2O2-induced apoptosis); assay type: cell-based; conditions: newborn rat cardiomyocytes; H2O2 0.075 mmol/liter for 30 minutes, then 24 hours culture
Method: An in vitro study into an anti-apoptotic effect in primary cultures of cardiomyocytes was carried out by inducing apoptosis by adding hydrogen peroxide (H2O2). The free radicals produced induce apoptosis. This is similar to what is observed in ischaemia-reperfusion (R. Von Harsdorf, Circulation 99, 2934-2941). The cardiomyocytes are isolated from newborn rat hearts and are spread out at a density of 35 000 cells/cm^2. The process of apoptosis is induced by the addition of H2O2 (0.075 mmol/liter) for 30 minutes. The cardiomyocytes are then replaced in the culture medium for 24 hours. The apoptotic cells are visualised by various techniques, for example by the fragmentation of the genomic DNA that occurs in the process of apoptosis. […] The characteristic fragments of 180 bp of genomic DNA are detected by electrophoresis on agarose gel. The migration of phosphatidylserine (PS) from the inside of the membrane of the […] to the outside (externalisation) is an early indicator of apoptosis. This can be visualised by fluorescent labelling using annexin-V-FITC (fluorescein isothiocyanate) and quantified by comparison with the total number of cells.

[4] = tested on: lesions induced by kainic acid in the CA1 and CA3 regions of the hippocampus; assay: Neuroprotection in the CA1 and CA3 regions of the hippocampus (kainic acid lesions); assay type: in vivo, rat; conditions: single injection 20 mg/kg intraperitoneal 3 minutes before kainic acid 12 mg/kg i.p.; sacrifice 7 days later
Method: The histopathological changes observed which are associated with administration of kainic acid differ from cerebral ischaemia caused by lesions that develop first in the CA1 to CA3 regions of the hippocampus (C. Montecot et al., Neuroscience 84, 791-800). The aim is to study the protective effect against lesions induced essentially in the CA3 region of the hippocampus while there is no reduction in the circulation of blood.
Kainic acid is administered intraperitoneally to a conscious rat in a dose of 12 mg/kg. The animal is then observed for a period of about 2 hours during which, after a latent period, epileptiform convulsions occur. At the end of 2 hours, the convulsions are stopped by administration of 10 mg/kg of diazepam. The animals are sacrificed 7 days later, their brains are isolated and 8 transverse sections 15 μm thick, spaced 150 μm apart, are prepared. These are analysed by contrast microscopy by two independent observers having no knowledge of the experimental groups. A rating of 0 to 3 is given according to the severity of the neuronal lesions. The ratings for each hemisphere are added together to obtain a lesion rating.
The product is administered in a dose of 20 mg/kg by the intraperitoneal route 3 minutes before administration of the kainic acid.

**Q.** What does the source list for COc1ccc(CN2CCN(Cc3ccccc3)CC2)c(OCCCCCCC(=O)O)c1OC.Cl.Cl [Example 2, 7-{6-[(4-Benzyl-1-piperazinyl)methyl]-2,3-dimethoxyphenoxy}-heptanoic acid dihydrochloride]?
**A.** size of the infarction of the cortex and striatum [1]: reduced the size of the infarction of the cortex and striatum significantly; Cortical lesions: lesion, μm [2]: 200 μm; White matter lesions: lesion, μm [2]: 146.7 μm; size of the lesions in the white matter and in the cortex (neuroprotective effect) [2]: reduced the size of the lesions in the white matter and in the cortex; cell survival [3]: increase; percentage of cells undergoing apoptosis [3]: decrease; protection of neurones of the CA1 and CA3 regions of the hippocampus against kainic acid lesions [4]: protects the neurones of the CA1 and CA3 regions of the hippocampus against lesions induced by kainic acid

**Q.** Which results are given for COc1ccc(CN2CCNCC2)c(OC)c1OC [TMZ, Trimetazidine, reference compound]?
**A.** Cortical lesions: lesion, μm [2]: 800 μm; White matter lesions: lesion, μm [2]: 320 μm; size of the lesions in the white matter and in the cortex (neuroprotective effect) [2]: very low neuroprotective effect

Reference: patent publication US6686360B2, “N-benzylpiperazine compounds” (priority 2001, dated 2004)
